Results as given in ChEMBL document CHEMBL1649463, “Capsular type and antibiotic resistance in Streptococcus agalactiae isolates from patients, ranging from newborns to the elderly, with invasive infections” (2009).
In brackets after ≈: the same amount, converted by molar mass.

test system: Streptococcus agalactiae; test: Antimicrobial activity against Streptococcus agalactiae clinical isolates by agar dilution method; assay type: functional

SMILES | MIC50 [µg/mL] | MIC90 [µg/mL]
CC(=N)N1CC[C@H](SC2=C(C(=O)O)N3C(=O)[C@H]([C@@H](C)O)[C@H]3C2)C1 | 0.016 (≈ 0.0471 µM) | 0.031 (≈ 0.0913 µM)
C=CC1=C(C(=O)O)N2C(=O)[C@@H](NC(=O)/C(=N\O)c3csc(N)n3)[C@H]2SC1 | 0.031 (≈ 0.0784 µM) | 0.063 (≈ 0.159 µM)
CC1(C)S[C@@H]2[C@H](NC(=O)[C@H](N)c3ccc(O)cc3)C(=O)N2[C@H]1C(=O)O [AMOXICILLIN] | 0.063 (≈ 0.172 µM) | 0.125 (≈ 0.342 µM)
CC1(C)S[C@@H]2[C@H](NC(=O)[C@H](N)c3ccccc3)C(=O)N2[C@H]1C(=O)O [AMPICILLIN] | 0.125 (≈ 0.358 µM) | 0.125 (≈ 0.358 µM)
CO/N=C(\C(=O)N[C@@H]1C(=O)N2C(C(=O)OCOC(=O)C(C)(C)C)=C(/C=C\c3scnc3C)CS[C@H]12)c1csc(N)n1 [CEFDITOREN PIVOXIL] | 0.031 (≈ 0.0499 µM) | 0.031 (≈ 0.0499 µM)
CO/N=C(\C(=O)N[C@@H]1C(=O)N2C(C(=O)O)=C(COC(C)=O)CS[C@H]12)c1csc(N)n1 [CEFOTAXIME] | 0.031 (≈ 0.0681 µM) | 0.063 (≈ 0.138 µM)
CN(C)CCn1nnnc1SCC1=C(C(=O)O)N2C(=O)[C@@H](NC(=O)Cc3csc(N)n3)[C@H]2SC1 [CEFOTIAM] | 0.5 (≈ 0.951 µM) | 0.5 (≈ 0.951 µM)
CC[C@H]1OC(=O)[C@H](C)[C@@H](O[C@H]2C[C@@](C)(OC)[C@@H](O)[C@H](C)O2)[C@H](C)[C@@H](O[C@@H]2O[C@H](C)C[C@H](N(C)C)[C@H]2O)[C@](C)(OC)C[C@@H](C)C(=O)[C@H](C)[C@@H](O)[C@]1(C)O [CLARITHROMYCIN] | 0.125 (≈ 0.167 µM) | ≥ 64
CCC[C@@H]1C[C@@H](C(=O)N[C@@H]([C@H]2O[C@H](SC)[C@H](O)[C@@H](O)[C@H]2O)[C@H](C)Cl)N(C)C1 [CLINDAMYCIN] | 0.063 (≈ 0.148 µM) | ≥ 64
CC[C@H]1OC(=O)[C@H](C)[C@@H](O[C@H]2C[C@@](C)(OC)[C@@H](O)[C@H](C)O2)[C@H](C)[C@@H](O[C@@H]2O[C@H](C)C[C@H](N(C)C)[C@H]2O)[C@](C)(O)C[C@@H](C)C(=O)[C@H](C)[C@@H](O)[C@]1(C)O [ERYTHROMYCIN] | 0.032 (≈ 0.0436 µM) | ≥ 64
C[C@H]1COc2c(N3CCN(C)CC3)c(F)cc3c(=O)c(C(=O)O)cn1c23.C[C@H]1COc2c(N3CCN(C)CC3)c(F)cc3c(=O)c(C(=O)O)cn1c23.O [LEVOFLOXACIN] | 2 | ≥ 64
C[C@@H](O)[C@H]1C(=O)N2C(C(=O)O)=C(S[C@@H]3CN[C@H](C(=O)N(C)C)C3)[C@H](C)[C@H]12 [MEROPENEM] | 0.063 (≈ 0.164 µM) | 0.063 (≈ 0.164 µM)
CC1(C)S[C@@H]2[C@H](NC(=O)Cc3ccccc3)C(=O)N2[C@H]1C(=O)O [PENICILLIN G] | 0.063 (≈ 0.188 µM) | 0.063 (≈ 0.188 µM)
